We go through one molecule from ChEMBL document CHEMBL1152015, “One-step synthesis of radioiodinated biotin derivatives” (Bioorg Med Chem Lett, 1996).

Assay [1] can be described thus: Compound was evaluated for its affinity towards avidin.
The nature of assay [2]: compound was evaluated for its affinity towards streptavidin.

`O=C(O)CCCC[C@@H]1SC[C@@H]2NC(=O)N[C@@H]21`: the Ka in assay [1] and in assay [2] was 1e+16 M⁻¹ in each case.
